Test results published in the OligoGym collection.
Values joined by “and” are separate entries in the source; they are usually repeats but may differ in a detail not shown here. Equal values may be shown once. After the bases stand the sugars from the 5' end (letter, count) and the backbone: PS all phosphorothioate, else s phosphorothioate and o phosphodiester by linkage. Methylation of C is not given here. e = 2'-O-(2-methoxyethyl) (MOE); k = constrained ethyl (cEt); d = 2'-deoxy (DNA); m = 2'-O-methyl

Target: HSD17B13
Settings: ASO, HepaRG

Row | Sequence | target mRNA inhibition (1 µM) | other results
1 | TCCTGTGTTAGCTTTA (sugars k3 d10 k3, PS) | 56% | –
2 | TATCTATTATGCACTC (sugars k3 d10 k3, PS) | 48% | –
3 | AACTTCATAGTGGACT (sugars k3 d10 k3, PS) | 68% | –
4 | TGTGAGAGGATAGTGA (sugars k3 d10 k3, PS) | 50% | –
5 | CTTATTGGTAAGTATT (sugars kkdddddddddkekek, PS) | 9% | –
6 | TAGAACTGTGTTGCTT (sugars k3 d10 k3, PS) | 78% | target mRNA inhibition (0.02 µM): 14%; target mRNA inhibition (0.078 µM): 27%; target mRNA inhibition (0.313 µM): 57%; target mRNA inhibition (1.25 µM): 78%; target mRNA inhibition (5 µM): 90%
7 | TTAGTTAGAATAGTCT (sugars kkdddddddddkekek, PS) | 53% | –
8 | TACAGATTGGAATGCT (sugars k3 d10 k3, PS) | 46% | –
9 | TCAGAACAGTTCAACT (sugars k3 d10 k3, PS) | 30% | –
10 | CAGTACAGTTCCTTTT (sugars k3 d10 k3, PS) | 43% | –
11 | TGATCTCTTAGCTGTG (sugars k3 d10 k3, PS) | 59% | –
12 | GAGGTATGTCATACTT (sugars k3 d10 k3, PS) | 29% | –
13 | AAGAUACCCAGGTTGC (sugars k3 d1 m1 d8 k3, PS) | 37% | –
14 | TTGATAAAATAGGGTG (sugars k3 d10 k3, PS) | 46% | –
15 | CCATAACCATAGGACA (sugars k3 d10 k3, PS) | 63% | target mRNA inhibition (0.02 µM): 35%; target mRNA inhibition (0.078 µM): 13%; target mRNA inhibition (0.313 µM): 54%; target mRNA inhibition (1.25 µM): 78%; target mRNA inhibition (5 µM): 91%
16 | TAATACATTAGCAAGC (sugars k3 d9 k3 e1, PS) | 35% | –
17 | ACTTGAACAGTCTTAA (sugars kkdddddddddkekek, PS) | 60% | –
18 | GTTTTGGGCTAATGAA (sugars k3 d9 k3 e1, PS) | 47% | –
19 | CACAATCTAGCAACCT (sugars k3 d10 k3, PS) | 40% | –
20 | AGTTTTGGGACCAATA (sugars k3 d10 k3, PS) | 31% | –
21 | TCACAATCTAGCAACC (sugars k3 d10 k3, PS) | 4% | –
22 | AGTATTCCATCTATCA (sugars k3 d10 k3, PS) | 62% | –
23 | CATTCGAATTTCTTCA (sugars k3 d10 k3, PS) | 77% | target mRNA inhibition (0.02 µM): 29%; target mRNA inhibition (0.078 µM): 53%; target mRNA inhibition (0.313 µM): 74%; target mRNA inhibition (1.25 µM): 91%; target mRNA inhibition (5 µM): 97%
24 | GATAAAGCTGCCTGCT (sugars k3 d10 k3, PS) | 42% | –

Row | Sequence | target mRNA inhibition (1 µM) | other results
25 | ATAACTACAAGAGGTT (sugars k3 d9 k3 e1, PS) | 67% | –
26 | GTATTCCATCTATCAG (sugars k3 d9 k3 e1, PS) | 51% | –
27 | CCAAGTAGGAGTAGAT (sugars k3 d10 k3, PS) | 19% | –
28 | ATCCATTCTATGCAAG (sugars k3 d10 k3, PS) | 46% | –
29 | AGACAGACTGTTGAGC (sugars k3 d10 k3, PS) | 74% | –
30 | TAAGCTGAGAGTTCTA (sugars k3 d9 k3 e1, PS) | 48% | –
31 | TCCCACAGAACCAATA (sugars k3 d10 k3, PS) | 24% | –
32 | AAATTATACTTTTCCG (sugars k3 d10 k3, PS) | 85% | target mRNA inhibition (0.02 µM): 0%; target mRNA inhibition (0.078 µM): 38%; target mRNA inhibition (0.313 µM): 66%; target mRNA inhibition (1.25 µM): 88%; target mRNA inhibition (5 µM): 92%
33 | GTAGCTTTTGTCCACC (sugars k3 d9 k3 e1, PS) | 67% | –
34 | TAATTACAACCTGGTT (sugars k3 d10 k3, PS) | 52% | –
35 | TGATGTAGTGGGAGTC (sugars k3 d1 m1 d8 k3, PS) | 43% | –
36 | AGTAATCACAAGTAAG (sugars k3 d10 k3, PS) | 54% | –
37 | TGACAATGGTTGCCAC (sugars k3 d10 k3, PS) | 40% | –
38 | TCACCACGATTGTTAC (sugars k3 d10 k3, PS) | 34% | –
39 | TGATACACCAATGCAG (sugars k3 d10 k3, PS) | 44% | –
40 | TTGTTGATATTCTGTG (sugars k3 d10 k3, PS) | 52% | –
41 | ACAATATGGGATGAGG (sugars kkdddddddddkekek, PS) | 51% | –
42 | CCCTTAACAAACCTCC (sugars k3 d10 k3, PS) | 43% | –
43 | GCTTAATGTTCAGTTT (sugars k3 d10 k3, PS) | 50% | –
44 | AGTAGTGTAAGCTGAG (sugars kkdddddddddkekek, PS) | 52% | –
45 | GCTGAGAGTTCTACAC (sugars k3 d10 k3, PS) | 45% | –
46 | AGAATTAAGGGCTATA (sugars k3 d10 k3, PS) | 45% | –
47 | CTTCAGTTAGCAGCTA (sugars k3 d10 k3, PS) | 50% | –
48 | CTTGACAATGGTTGCC (sugars k3 d10 k3, PS) | 58% | –

Row | Sequence | target mRNA inhibition (1 µM) | other results
49 | CAGCATCAAGACATTC (sugars k3 d1 m1 d8 k3, PS) | 52% | –
50 | CAAGGAGTATGACAAC (sugars k3 d10 k3, PS) | 6% | –
51 | GTTTTGGGCTAATGAA (sugars k3 d10 k3, PS) | 54% | –
52 | GGACCAAGGATATATG (sugars k3 d10 k3, PS) | 56% | –
53 | CATAAAGGTGGGATAA (sugars k3 d10 k3, PS) | 23% | –
54 | GCTGAAACTGCTGATT (sugars k3 d10 k3, PS) | 38% | –
55 | AATCACAAGTAAGGTA (sugars k3 d10 k3, PS) | 52% | –
56 | TAGTGGACTTCATTAG (sugars k3 d1 m1 d8 k3, PS) | 34% | –
57 | TATAGTTATCTTCTCA (sugars k3 d10 k3, PS) | 46% | –
58 | CTGTGAGAGGATAGTG (sugars k3 d10 k3, PS) | 33% | –
59 | AGGTTGAGATAAAGCT (sugars k3 d10 k3, PS) | 74% | target mRNA inhibition (0.02 µM): 20%; target mRNA inhibition (0.078 µM): 27%; target mRNA inhibition (0.313 µM): 40%; target mRNA inhibition (1.25 µM): 69%; target mRNA inhibition (5 µM): 86%
60 | ACTGAAGGTCTGAGCT (sugars k3 d10 k3, PS) | 20% | –
61 | ACTTGAACAGTCTTAA (sugars k3 d1 m1 d8 k3, PS) | 29% | –
62 | GCAGAATATATACTAG (sugars k3 d10 k3, PS) | 55% | –
63 | ACAATTTTTCCAATCC (sugars k3 d10 k3, PS) | 86% | target mRNA inhibition (0.02 µM): 9%; target mRNA inhibition (0.078 µM): 37%; target mRNA inhibition (0.313 µM): 62%; target mRNA inhibition (1.25 µM): 76%; target mRNA inhibition (5 µM): 93%
64 | AAGACATTCTAGCCTG (sugars k3 d1 m1 d8 k3, PS) | 54% | –
65 | GACCAATATAATCCAA (sugars k3 d10 k3, PS) | 34% | –
66 | TTCTAGGATGATGTTC (sugars k3 d10 k3, PS) | 72% | –
67 | AGTCGGTCACCTTTCA (sugars k3 d10 k3, PS) | 66% | –
68 | TGGGACCAAGGATATA (sugars k3 d10 k3, PS) | 20% | –
69 | CTGCUGCTAGTGCCAA (sugars k3 d1 m1 d8 k3, PS) | 66% | –
70 | AGTCCATGCAAAAGCA (sugars k3 d1 m1 d8 k3, PS) | 73% | target mRNA inhibition (0.02 µM): 0%; target mRNA inhibition (0.078 µM): 21%; target mRNA inhibition (0.313 µM): 20%; target mRNA inhibition (1.25 µM): 65%; target mRNA inhibition (5 µM): 75%
71 | CTGCTACTCTAGGAGA (sugars k3 d10 k3, PS) | 66% | –
72 | GCACATCATGTTTTGC (sugars k3 d10 k3, PS) | 44% | –

Row | Sequence | target mRNA inhibition (1 µM) | other results
73 | AGTAAACGACTCTGTA (sugars k3 d10 k3, PS) | 33% | –
74 | CTTCACTATATTGCAT (sugars k3 d10 k3, PS) | 50% | –
75 | TGCATCTTAAGATACC (sugars k3 d10 k3, PS) | 81% | –
76 | TCCCAACCAAACTTCC (sugars k3 d10 k3, PS) | 82% | target mRNA inhibition (0.02 µM): 0%; target mRNA inhibition (0.078 µM): 0%; target mRNA inhibition (0.313 µM): 7%; target mRNA inhibition (1.25 µM): 25%; target mRNA inhibition (5 µM): 63% and 50%
77 | TCAGTAGAGAGCATAA (sugars k3 d10 k3, PS) | 52% | –
78 | CAAATTTGCTGGAACT (sugars k3 d10 k3, PS) | 39% | –
79 | TTTGAGAGAACTTATA (sugars k3 d10 k3, PS) | 0% | –
80 | GTTAAAACTTCATTCC (sugars k3 d10 k3, PS) | 5% | –
81 | GATTTCTAGGATGATG (sugars k3 d10 k3, PS) | 57% | –
82 | CTTATGATAATTTGGT (sugars k3 d10 k3, PS) | 2% | –
83 | TTGAACAGTCTTAAAC (sugars k3 d9 k3 e1, PS) | 35% | –
84 | GCCTAAAGGAGATCTG (sugars k3 d10 k3, PS) | 67% | –
85 | TCTTCTCTTGGGTCCA (sugars k3 d10 k3, PS) | 59% | –
86 | GAATATATACTAGGAT (sugars k3 d10 k3, PS) | 5% | –
87 | CAATGGTTGATAGTTT (sugars k3 d10 k3, PS) | 47% | –
88 | TGTCCCAGCATTATTC (sugars k3 d10 k3, PS) | 31% | –
89 | TTAAATCAGGCAGTCA (sugars k3 d10 k3, PS) | 45% | –
90 | GAGTAGTGTAAGCTGA (sugars k3 d10 k3, PS) | 80% | target mRNA inhibition (0.02 µM): 12%; target mRNA inhibition (0.078 µM): 12%; target mRNA inhibition (0.313 µM): 51%; target mRNA inhibition (1.25 µM): 69%; target mRNA inhibition (5 µM): 92%
91 | GCATATTCATTTGGCC (sugars k3 d10 k3, PS) | 6% | –
92 | GGTAATCTCTTCATCC (sugars k3 d10 k3, PS) | 9% | –
93 | TGTATTTCGCTACTGT (sugars k3 d10 k3, PS) | 76% | target mRNA inhibition (0.02 µM): 12%; target mRNA inhibition (0.078 µM): 18%; target mRNA inhibition (0.313 µM): 46%; target mRNA inhibition (1.25 µM): 80%; target mRNA inhibition (5 µM): 90%
